This assay has as its target T1, human recombinant calcium ion channel Cav2.2/β3/α2δ-1 (Homo sapiens, UniProt P54289).
T1 construct: expressed in transfected cells; host or cells: CHO cells (membranes)
In words: In vitro binding to human recombinant calcium ion channel Cav2.2/β3/α2δ-1 ([3H]gabapentin competition). The source says: Example 28 In Vitro Binding of Compounds to Human Recombinant Calcium Ion Channel Cav2.2/β3/α2δ-1
There are four subtypes of the voltage-gated calcium ion channel α2δ subunit, α2δ-1, α2δ-2, α2δ-3 and α2δ-4, in which α2δ-1 is the subtype that mediates chronic neuropathic pain (Field, M. J. et al.; Proc. Natl. Acad. Sci. U.S.A. 2006, 103, 17537-17542). Therefore, the binding strength of a compound to α2δ-1 is a direct indicator for measuring an analgesic effect thereof on the chronic neuropathic pain (Calandre, E. P. et al.; Expert Rev. Neuroether. 2016, 16, 1263-1277).
The in vitro binding strength of the compound of the present application to human recombinant calcium ion channel Cav2.2/β3/α2δ-1 is basically operated according to a reported method (Gee, N. S. et al.; J. Biol. Chem. 1996, 271, 5768-5776; Marais, E. et al.; Mol. Pharmacol. 2001, 59, 1243-1248). CHO cells expressing the human recombinant calcium ion channel Cav2.2/β3/α2δ-1 were used in the test. After routine separation of cell membranes, 3 μg of the cell membranes were added into each well with a modified HEPES/KOH buffer solution (pH 7.4) as a solution of the test system. Then, 5 nM [^3H]gabapentin and the compound to be tested at 6 concentrations (3, 9, 27, 81, 243, and 729 nM) were added, and the test system was incubated at 25° C. for 120 min. Non-specific binding was obtained by replacing the compound to be tested in the above test system with […] gabapentin. After the incubation was completed, the cell membranes were collected by filtration and washed with 50 mM Tris-HCl (pH 7.4), and then the radioactivity of [^3H]gabapentin bound to the cell membranes was tested by a liquid scintillation technology. […] An inhibition rate of the compound of the present application on the binding of the [^3H]gabapentin to the human recombinant calcium ion channel Cav2.2/β3/α2δ-1 was calculated according to the following formula: […]
wherein • I is the radioactivity corresponding to that the compound to be tested and [^3H]gabapentin are simultaneously co-incubated with the human recombinant calcium ion channel Cav2.2/β3/α2δ-1, • I0 is the radioactivity corresponding to co-incubation of [^3H]gabapentin and the human recombinant calcium ion channel Cav2.2/β3/α2δ-1 without adding the compound to be tested into the incubation system, and • IU is the radioactivity corresponding to that 10 μM gabapentin and [^3H]gabapentin are simultaneously co-incubated with the human recombinant calcium ion channel Cav2.2/β3/α2δ-1.
The concentration of the compound to be tested that inhibits 50% of the binding of [^3H]gabapentin to the human recombinant calcium ion channel Cav2.2/β3/α2δ-1 is defined as IC50, and the IC50 is calculated by nonlinear least squares regression analysis using the above inhibition rate (MathIQ™, ID Business Solutions Ltd., UK).

Molecules are shown by their SMILES.

T1 sequence (P54289 25-956 limits assumed): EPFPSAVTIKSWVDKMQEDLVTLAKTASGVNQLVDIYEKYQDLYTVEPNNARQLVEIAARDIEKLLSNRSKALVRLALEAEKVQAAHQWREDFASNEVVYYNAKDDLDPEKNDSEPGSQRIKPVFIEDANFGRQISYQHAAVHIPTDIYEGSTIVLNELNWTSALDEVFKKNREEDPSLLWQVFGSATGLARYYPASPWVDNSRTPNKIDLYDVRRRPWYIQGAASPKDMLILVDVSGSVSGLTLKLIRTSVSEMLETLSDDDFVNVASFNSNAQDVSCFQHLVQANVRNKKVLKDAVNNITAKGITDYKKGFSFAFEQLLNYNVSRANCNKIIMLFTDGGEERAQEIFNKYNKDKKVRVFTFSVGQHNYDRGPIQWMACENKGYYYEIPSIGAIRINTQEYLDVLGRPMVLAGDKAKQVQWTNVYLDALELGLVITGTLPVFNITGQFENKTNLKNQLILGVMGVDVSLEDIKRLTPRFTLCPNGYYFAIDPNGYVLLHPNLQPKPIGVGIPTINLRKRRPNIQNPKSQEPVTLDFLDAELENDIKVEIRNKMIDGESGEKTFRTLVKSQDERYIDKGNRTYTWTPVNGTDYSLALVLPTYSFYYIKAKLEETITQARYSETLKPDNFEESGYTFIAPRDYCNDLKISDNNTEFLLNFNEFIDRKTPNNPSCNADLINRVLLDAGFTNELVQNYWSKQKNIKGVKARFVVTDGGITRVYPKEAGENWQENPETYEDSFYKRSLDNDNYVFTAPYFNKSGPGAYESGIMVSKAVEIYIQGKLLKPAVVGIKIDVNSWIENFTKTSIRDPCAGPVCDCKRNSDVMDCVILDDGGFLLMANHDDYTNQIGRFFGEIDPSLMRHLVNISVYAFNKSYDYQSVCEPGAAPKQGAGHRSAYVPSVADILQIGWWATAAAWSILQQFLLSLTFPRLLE
T1 sequence (P54289 957-1103 partner limits assumed): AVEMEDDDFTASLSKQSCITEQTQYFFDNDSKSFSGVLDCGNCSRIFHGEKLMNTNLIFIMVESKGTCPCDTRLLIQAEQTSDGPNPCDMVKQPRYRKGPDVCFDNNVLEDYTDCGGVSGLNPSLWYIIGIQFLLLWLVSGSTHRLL
T1 sequence (Q00975 whole entry partner): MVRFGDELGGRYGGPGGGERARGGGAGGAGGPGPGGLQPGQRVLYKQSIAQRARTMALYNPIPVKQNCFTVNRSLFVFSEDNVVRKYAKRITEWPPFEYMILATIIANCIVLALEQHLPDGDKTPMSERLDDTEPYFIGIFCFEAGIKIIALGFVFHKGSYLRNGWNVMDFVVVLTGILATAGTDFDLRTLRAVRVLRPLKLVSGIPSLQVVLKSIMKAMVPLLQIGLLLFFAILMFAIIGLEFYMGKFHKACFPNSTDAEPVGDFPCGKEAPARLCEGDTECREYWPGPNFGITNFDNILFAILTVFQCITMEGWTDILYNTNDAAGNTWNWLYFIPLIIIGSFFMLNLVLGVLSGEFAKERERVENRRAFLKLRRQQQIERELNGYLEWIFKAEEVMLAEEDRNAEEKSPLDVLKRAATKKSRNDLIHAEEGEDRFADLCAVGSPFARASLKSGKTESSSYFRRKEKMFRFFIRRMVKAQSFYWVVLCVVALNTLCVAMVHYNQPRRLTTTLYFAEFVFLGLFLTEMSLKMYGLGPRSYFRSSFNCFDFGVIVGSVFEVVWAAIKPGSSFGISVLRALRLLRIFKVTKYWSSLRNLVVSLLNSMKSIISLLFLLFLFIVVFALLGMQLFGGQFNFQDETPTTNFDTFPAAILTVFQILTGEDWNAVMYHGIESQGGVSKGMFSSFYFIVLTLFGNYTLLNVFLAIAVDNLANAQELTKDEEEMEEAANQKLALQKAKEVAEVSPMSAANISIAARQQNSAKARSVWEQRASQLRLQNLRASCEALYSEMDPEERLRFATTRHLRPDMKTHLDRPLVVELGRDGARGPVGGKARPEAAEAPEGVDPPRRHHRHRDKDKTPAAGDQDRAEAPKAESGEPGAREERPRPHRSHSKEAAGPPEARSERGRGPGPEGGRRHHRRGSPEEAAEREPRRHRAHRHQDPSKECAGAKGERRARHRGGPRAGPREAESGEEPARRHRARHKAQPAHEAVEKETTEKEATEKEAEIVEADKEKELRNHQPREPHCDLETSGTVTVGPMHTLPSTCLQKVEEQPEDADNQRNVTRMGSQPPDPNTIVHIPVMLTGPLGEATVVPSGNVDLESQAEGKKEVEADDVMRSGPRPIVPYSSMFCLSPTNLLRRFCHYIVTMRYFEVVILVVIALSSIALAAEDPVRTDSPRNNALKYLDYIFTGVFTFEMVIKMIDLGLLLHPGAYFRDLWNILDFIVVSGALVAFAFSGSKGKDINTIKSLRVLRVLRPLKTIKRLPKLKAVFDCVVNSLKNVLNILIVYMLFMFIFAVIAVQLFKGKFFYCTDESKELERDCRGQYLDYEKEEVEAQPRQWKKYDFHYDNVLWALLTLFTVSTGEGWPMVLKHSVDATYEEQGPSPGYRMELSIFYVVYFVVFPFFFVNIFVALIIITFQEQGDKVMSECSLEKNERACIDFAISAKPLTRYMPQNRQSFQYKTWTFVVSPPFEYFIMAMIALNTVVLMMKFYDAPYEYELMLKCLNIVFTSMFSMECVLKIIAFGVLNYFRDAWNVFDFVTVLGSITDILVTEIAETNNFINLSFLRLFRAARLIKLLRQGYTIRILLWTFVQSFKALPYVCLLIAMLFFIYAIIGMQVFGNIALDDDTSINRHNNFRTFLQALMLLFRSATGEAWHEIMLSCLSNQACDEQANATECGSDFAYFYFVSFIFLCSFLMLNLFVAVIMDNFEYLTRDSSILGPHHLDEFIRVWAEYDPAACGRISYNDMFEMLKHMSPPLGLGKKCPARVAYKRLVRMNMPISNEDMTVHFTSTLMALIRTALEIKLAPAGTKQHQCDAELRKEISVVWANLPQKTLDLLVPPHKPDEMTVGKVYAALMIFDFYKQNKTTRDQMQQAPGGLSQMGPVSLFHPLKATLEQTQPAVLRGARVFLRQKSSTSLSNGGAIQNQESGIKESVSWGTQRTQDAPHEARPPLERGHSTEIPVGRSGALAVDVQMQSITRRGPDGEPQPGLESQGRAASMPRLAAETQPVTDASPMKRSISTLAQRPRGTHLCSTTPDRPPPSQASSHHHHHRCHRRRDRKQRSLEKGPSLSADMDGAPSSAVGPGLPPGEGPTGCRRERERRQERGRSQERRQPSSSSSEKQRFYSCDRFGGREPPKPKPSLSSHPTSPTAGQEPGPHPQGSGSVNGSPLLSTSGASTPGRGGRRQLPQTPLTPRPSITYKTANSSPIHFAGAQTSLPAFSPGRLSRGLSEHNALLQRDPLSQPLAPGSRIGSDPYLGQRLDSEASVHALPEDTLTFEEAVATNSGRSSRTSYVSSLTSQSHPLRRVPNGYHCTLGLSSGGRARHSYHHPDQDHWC
T1 sequence (P54284 whole entry partner): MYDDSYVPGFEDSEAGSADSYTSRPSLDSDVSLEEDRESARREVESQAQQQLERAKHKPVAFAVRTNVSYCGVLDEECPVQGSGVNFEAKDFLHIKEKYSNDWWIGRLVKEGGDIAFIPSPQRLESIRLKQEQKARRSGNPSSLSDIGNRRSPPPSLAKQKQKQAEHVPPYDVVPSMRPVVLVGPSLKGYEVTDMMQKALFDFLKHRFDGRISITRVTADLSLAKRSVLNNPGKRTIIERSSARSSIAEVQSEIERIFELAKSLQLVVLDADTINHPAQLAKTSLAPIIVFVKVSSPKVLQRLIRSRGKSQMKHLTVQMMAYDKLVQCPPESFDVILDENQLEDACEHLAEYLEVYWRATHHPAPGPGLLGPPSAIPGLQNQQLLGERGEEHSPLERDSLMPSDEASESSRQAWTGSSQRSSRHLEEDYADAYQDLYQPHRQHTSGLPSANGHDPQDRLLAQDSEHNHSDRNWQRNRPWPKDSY

Regarding `CC(C)C[C@H](CN)CC(=O)O` [Pregabalin], the IC50 is 38 nM.

As usually defined, the IC50 is the concentration at which inhibition is half-maximal.

Source of the values: US20260174682A1, “GAMMA-AMINOBUTYRIC ACID DERIVATIVE COMPRISING POLYCYCLIC STRUCTURE, METHOD FOR PREPARING SAME, AND USE THEREOF” (ZHONGSHAN INSTITUTE FOR DRUG DISCOVERY, SIMM, CAS., priority 2022, published 2026).
